# Read-outs that look alike come from different tables or passages of the source.
# Key:
# [1] = system: symmetric dimethylation of arginine (SDMA) of PRMT5 substrates in MCF-7 cells; experiment: PRMT5 Cell Target Engagement (TE) Assay; type: cell-based; details: Homo sapiens, MCF7, 72 h, 3 days treatment, SDMA high content imaging
# Outline: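 Readout is single-cell nuclear symmetric-dimethylarginine immunofluorescence (Alexa488), normalized to DMSO-treated cells. Compounds were applied to MCF-7 cells for 3 days at 37 °C, top concentration 10000 nM in 1:3 steps over ten points; curves fitted with 4-parameter robust fit.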
# [2] = target: T1, Full-length (FL)-PRMT5-MEP50 enzyme complex (Homo sapiens, UniProt O14744); experiment: PRMT5-MEP50 Enzyme Methylation Assay (Version A); type: biochemical
# T1 construct: Full-length (FL)-PRMT5-MEP50 enzyme complex (recombinant proteins from baculovirus-transfected Sf21 cells: FL-PRMT5; MW=73837 kDa and FL-MEP50; MW=38614); made in house; host or cells: baculovirus-transfected Sf21 cells
# T1 sequence (O14744 whole entry): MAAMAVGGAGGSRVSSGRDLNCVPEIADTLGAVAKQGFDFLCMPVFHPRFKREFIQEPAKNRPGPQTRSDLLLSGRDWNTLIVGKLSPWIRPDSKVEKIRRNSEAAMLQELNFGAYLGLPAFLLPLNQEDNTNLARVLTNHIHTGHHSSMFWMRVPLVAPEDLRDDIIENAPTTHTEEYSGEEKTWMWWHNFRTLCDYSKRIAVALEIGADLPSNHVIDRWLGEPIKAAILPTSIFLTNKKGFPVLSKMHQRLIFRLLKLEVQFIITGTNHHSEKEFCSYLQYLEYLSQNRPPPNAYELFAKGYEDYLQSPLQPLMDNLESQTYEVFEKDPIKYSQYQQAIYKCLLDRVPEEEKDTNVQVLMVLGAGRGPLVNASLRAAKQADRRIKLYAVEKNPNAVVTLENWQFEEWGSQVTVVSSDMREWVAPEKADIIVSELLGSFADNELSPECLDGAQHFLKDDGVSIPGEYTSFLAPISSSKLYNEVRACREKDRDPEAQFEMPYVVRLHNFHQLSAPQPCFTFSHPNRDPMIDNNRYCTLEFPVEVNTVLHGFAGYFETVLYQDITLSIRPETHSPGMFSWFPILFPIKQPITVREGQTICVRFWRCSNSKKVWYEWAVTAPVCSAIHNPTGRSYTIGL
# T1 sequence (Q9BQA1 whole entry partner): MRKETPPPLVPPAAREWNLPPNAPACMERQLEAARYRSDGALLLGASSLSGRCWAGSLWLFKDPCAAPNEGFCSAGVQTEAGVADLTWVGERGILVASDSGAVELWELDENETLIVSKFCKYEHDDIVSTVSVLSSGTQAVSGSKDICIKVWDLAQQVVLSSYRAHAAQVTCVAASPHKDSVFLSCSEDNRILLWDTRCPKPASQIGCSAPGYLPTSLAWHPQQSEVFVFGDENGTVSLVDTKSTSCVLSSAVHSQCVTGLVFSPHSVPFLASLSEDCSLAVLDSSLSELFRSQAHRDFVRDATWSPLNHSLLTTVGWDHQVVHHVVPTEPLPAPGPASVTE
# Outline: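 Compound was pre-incubated with enzyme for 60 min, then reacted 150 min at 37° C. at final 1.0 nM PRMT5-MEP50, 15 μM SAM and 75 nM biotinylated H4R3(Me1) peptide, in 50 mM Bicine pH 8.0 with 1% DMSO. SAMDI mass-spectrometric readout of Me1→Me2 conversion. EC50 from 4- or 7-parameter regression.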
# [3] = second value of 7 parameter biphasic fit, read-out: Enzyme Methylation Assay Version A (EC50 2)
# [4] = single EC50 = 4 parameter single site sigmoidal fit, EC50 1 = first value of 7 parameter biphasic fit, read-out: Enzyme Methylation Assay Version A (EC50 or EC50 1)
Structure (SMILES),EC50 [1],"EC50 [2, 3]","EC50 [2, 4]"
"O=C(c1cn2cccc(Br)c2n1)N1CC[C@]2(Cc3ccccc3CN2)[C@H](O)C1 [Example 209, (8-bromoimidazo[1,2-a]pyridin-2-yl)[(3R,3′R)-3′-hydroxy-1,4-dihydro-1′H,2H-spiro[isoquinoline-3,4′-piperidin]-1′-yl]methanone]",256 nM,3890 nM,3.74 nM
"O=C(c1cn2cc(Cl)cc(Br)c2n1)N1CC[C@]2(Cc3ccccc3CN2)[C@H](O)C1 [Example 210, (8-bromo-6-chloroimidazo[1,2-a]pyridin-2-yl)[(3R,3′R)-3′-hydroxy-1,4-dihydro-1′H,2H-spiro[isoquinoline-3,4′-piperidin]-1′-yl]methanone]",12.4 nM,55 nM,0.207 nM
"O=C(c1cn2cc(C(F)(F)F)cc(Cl)c2n1)N1CC[C@]2(Cc3ccccc3CN2)[C@H](O)C1 [Example 211, [8-chloro-6-(trifluoromethyl)imidazo[1,2-a]pyridin-2-yl][(3R,3′R)-3′-hydroxy-1,4-dihydro-1′H,2H-spiro[isoquinoline-3,4′-piperidin]-1′-yl]methanone]",7.99 nM,71.6 nM,0.191 nM
"COc1ccc(C)cc1-n1cnc(C(=O)N2CC[C@]3(Cc4ccccc4CN3)[C@H](O)C2)c1 [Example 213, [(3R,3′R)-3′-hydroxy-1,4-dihydro-1′H,2H-spiro[isoquinoline-3,4′-piperidin]-1′-yl][1-(2-methoxy-5-methylphenyl)-1H-imidazol-4-yl]methanone]",209 nM,343 nM,4.33 nM
"O=C(c1cn2cc(Cl)cc(Cl)c2n1)N1CC[C@]2(Cc3ccccc3CN2)[C@H](O)C1 [Example 214, (6,8-dichloroimidazo[1,2-a]pyridin-2-yl)[(3R,3′R)-3′-hydroxy-1,4-dihydro-1′H,2H-spiro[isoquinoline-3,4′-piperidin]-1′-yl]methanone]",9 nM,47.9 nM,1.12 nM
"N#Cc1cc(Cl)c2nc(C(=O)N3CC[C@]4(Cc5ccccc5CN4)[C@H](O)C3)cn2c1 [Example 215, 8-chloro-2-{[(3R,3′R)-3′-hydroxy-1,4-dihydro-1′H,2H-spiro[isoquinoline-3,4′-piperidin]-1′-yl]carbonyl}imidazo[1,2-a]pyridine-6-carbonitrile]",122 nM,,56.7 nM
"O=C(c1cn2ccc(Cl)c(I)c2n1)N1CC[C@]2(Cc3ccccc3CN2)[C@H](O)C1 [Example 216, (7-chloro-8-iodoimidazo[1,2-a]pyridin-2-yl)[(3R,3′R)-3′-hydroxy-1,4-dihydro-1′H,2H-spiro[isoquinoline-3,4′-piperidin]-1′-yl]methanone]",711 nM,2540 nM,26.3 nM

# Further molecules by falling EC50 [1], results first:
EC50 [1],"EC50 [2, 3]","EC50 [2, 4]",Structure (SMILES)
3120 nM,21400 nM,902 nM,"O=C(c1cn(-c2ccc(F)cc2)cn1)N1CC[C@]2(Cc3ccccc3CN2)[C@H](O)C1 [Example 212, [1-(4-fluorophenyl)-1H-imidazol-4-yl][(3R,3′R)-3′-hydroxy-1,4-dihydro-1′H,2H-spiro[isoquinoline-3,4′-piperidin]-1′-yl]methanone]"
100 nM,692 nM,0.763 nM,"O=C(c1cn2cc(F)cc(Br)c2n1)N1CC[C@]2(Cc3ccccc3CN2)[C@H](O)C1 [Example 208, (8-bromo-6-fluoroimidazo[1,2-a]pyridin-2-yl)[(3R,3′R)-3′-hydroxy-1,4-dihydro-1′H,2H-spiro[isoquinoline-3,4′-piperidin]-1′-yl]methanone]"
11.3 nM,40.3 nM,0.73 nM,"O=C(c1cn2cc(Br)cc(F)c2n1)N1CC[C@]2(Cc3ccccc3CN2)[C@H](O)C1 [Example 217, (6-bromo-8-fluoroimidazo[1,2-a]pyridin-2-yl)[(3R,3′R)-3′-hydroxy-1,4-dihydro-1′H,2H-spiro[isoquinoline-3,4′-piperidin]-1′-yl]methanone]"
